Experimental data: US6703388B2, “Nitrogen-containing tricyclic compounds and drugs containing the same” (Eisai Co., Ltd., priority 1996, dated 2004)
Read-outs that look alike come from different tables or passages of the source.

Columns and labels:
RBL-2H3 cells = assay: Inhibition of serotonin liberation from IgE-sensitized RBL-2H3 cells after antigen stimulation; type: cell-based, rat; conditions: Rattus norvegicus; [3H]-serotonin release, IgE-sensitized RBL-2H3 cells, antigen stimulation; read-out: IC50 (μM) in serotonin liberation from RBL-2H3 cells
Procedure, shortened: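 Rat RBL-2H3 cells labelled with [3H]-serotonin and sensitized with IgE simultaneously, incubated with compound, then challenged with specific antigen. Inhibition derived from [3H]-serotonin released into medium relative to release without compound.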

[1] = target: T1, tyrosine kinase of 72 kDa (Rattus norvegicus, UniProt Q64725); assay: Inhibition of activation (phosphorylation) of tyrosine kinase of 72 kDa due to antigenic stimulation in RBL-2H3 cells; type: cell-based
T1 construct: endogenous in cells; host or cells: RBL-2H3 cells
T1 sequence (Q64725 whole entry): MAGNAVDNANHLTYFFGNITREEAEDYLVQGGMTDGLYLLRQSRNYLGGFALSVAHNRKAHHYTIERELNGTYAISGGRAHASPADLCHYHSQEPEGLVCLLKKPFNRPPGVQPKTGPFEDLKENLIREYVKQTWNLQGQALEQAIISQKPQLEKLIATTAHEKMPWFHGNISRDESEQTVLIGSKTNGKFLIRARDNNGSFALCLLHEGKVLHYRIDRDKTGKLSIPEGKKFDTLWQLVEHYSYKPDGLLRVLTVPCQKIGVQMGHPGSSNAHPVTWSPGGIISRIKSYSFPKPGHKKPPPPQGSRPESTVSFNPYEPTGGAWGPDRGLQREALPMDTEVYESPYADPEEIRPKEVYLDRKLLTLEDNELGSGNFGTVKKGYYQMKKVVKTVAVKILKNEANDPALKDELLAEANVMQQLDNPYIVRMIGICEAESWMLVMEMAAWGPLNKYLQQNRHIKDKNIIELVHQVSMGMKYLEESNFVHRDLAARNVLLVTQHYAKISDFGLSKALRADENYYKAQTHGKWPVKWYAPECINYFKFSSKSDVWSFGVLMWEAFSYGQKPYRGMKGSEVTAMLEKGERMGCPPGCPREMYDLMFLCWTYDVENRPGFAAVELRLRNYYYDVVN
Experimental: RBL-2H3 cells were incubated for 10 min together with a test compound in a PBS buffer containing 0.1% of BSA and 1 mM of calcium. Next, the cells were reacted with an antigen specific for the IgE receptor for 10 min. After the completion of the antigenic stimulation, the cells were allowed to stand in ice for 1 hr in a 10 mM phosphate buffer (pH 7.5) containing a lysis buffer (1% Triton X-100, 0.1% SDS, 0.5% sodium deoxycholate, 50 mM NaCl, 50 mM NaF, 1 mM phenylmethyl sulfonyl fluoride, 50 μg/ml eupeptin, 10 unit/ml aprotonin) and 0.1% of NaN3 followed by centrifugation to give a cell lysate. This lysate was diluted with a buffer for electrophoresis, heated (95° C., 5 min) and then electrophoresed on a 10% SDS-polyacrylamide gel. After the electrophoresis, the sample was electrically transcribed onto a 0.2 μm nitrocellulose membrane and treated with an anti-phosphotyrosine antibody for 1 hr. Then the inhibitory activity was evaluated by the coloring analysis through chemiluminescence.

human basophils = assay: Inhibition of mediator (histamine, peptide leukotriene) liberation from human basophils stimulated with mite antigen; type: cell-based; conditions: enzyme immunoassay
Procedure, shortened: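 Dextran-separated leukocyte fraction containing basophils from heparinized human blood, in D-PBS(+) with 0.1% BSA, pretreated with compound 15 min at 37 °C, then challenged with mite antigen for 10 min. Released histamine and peptide leukotrienes in supernatant quantified by enzyme immunoassay.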

[2] = histamine, read-out: IC50 (μM) in mediator liberation from human basophils: histamine
[3] = peptide leukotriene, read-out: IC50 (μM) in mediator liberation from human basophils: leukotriene

Compound	IC50 (RBL-2H3 cells) [µM]	Inhibitory Strength (%) ([1]; Conc. of Compd. 10 μM)	IC50 (human basophils; [2]) [µM]	IC50 (human basophils; [3]) [µM]	Inhibitory Strength (%) ([1]; Conc. of Compd. 3 μM)	Inhibitory Strength (%) ([1]; Conc. of Compd. 30 μM)
Cc1ccc2c(c1C)N(CCNCc1ccccc1)c1ccccc1[S+]2[O-] (stereo not shown) [Example 143, 1,2-Dimethyl-10-(2-benzylaminoethyl)phenothiazine-5-oxide]	3	100	< 10	< 10		
Cc1ccc2c(c1C)N(CCN(C)Cc1ccccc1O)c1ccccc1[S+]2[O-] (stereo not shown) [Example 179]	2	100	10 to 30	3 to 10		
Cc1ccc2c(=NOC(C)C(=O)O)c3ccccc3n(CCCNCc3ccccc3)c2c1C (stereo not shown) [Example 236]	1				70	
Cc1ccc2c(c1C)N(CCCNCc1ccccc1)c1cc(CCO)ccc1S2(=O)=O [Example 201]	10		10	< 10		30-70%
Cc1ccc2c(c1C)N(CCCN1CCCCC1)c1ccccc1[S+]2[O-] (stereo not shown) [Example 104]	< 3				100	
Cc1ccc2c(c1C)N(CCCN1CCN(S(=O)(=O)c3ccccc3)CC1)c1ccccc1[S+]2[O-] (stereo not shown) [Example 115]	3	80	30 to 100	10		
Cc1ccc2c(c1C)N(CCCNCc1ccccc1)c1cccc(CC(=O)O)c1[S+]2[O-] (stereo not shown) [Example 262]	8					100%
COc1ccccc1CN(C)CCN1c2ccccc2[S+]([O-])c2ccc(C)c(C)c21 (stereo not shown) [Example 182]	2		30 to 100	10 to 30		
COc1ccsc1CNCCCN1c2ccc(F)cc2[S+]([O-])c2ccc(C)c(C)c21 (stereo not shown) [Example 87]	3		3 to 10	3 to 10		
Cc1ccc2c(c1C)N(CCCNCc1ccccc1N(C)C)c1ccccc1[S+]2[O-] (stereo not shown) [Example 50]	2		30	10 to 30		
Cc1ccc2c(c1C)N(CCNCc1cccc(CO)c1O)c1ccccc1[S+]2[O-] (stereo not shown) [Example 152]	1		3 to 10	< 3		
COc1ccc(CNCCCN2c3ccccc3[S+]([O-])c3ccc(C)c(C)c32)o1 (stereo not shown) [Example 64]	3		3 to 10	3		
Cc1ccc2c(c1C)N(CCCNCc1ccccc1)c1ccccc1S2(=O)=O [Example 200]	0.4					70%
Cc1ccc2c(c1C)N(CCCNCc1cccc(F)c1O)c1ccccc1[S+]2[O-] (stereo not shown) [Example 42]	2		3 to 10	< 3		
Cc1ccc2c(c1C)N(CCCN(C)Cc1ccc(O)cc1)c1ccccc1[S+]2[O-] (stereo not shown) [Example 165]	0.3		10 to 30	3 to 10		
Cc1ccc2c(c1C)N(CCCNCc1ccc3c(c1)OCCO3)c1ccccc1[S+]2[O-] (stereo not shown) [Example 53]	0.8		30 to 100	10 to 30		
Cc1ccc2c(c1C)N(CCN(C)Cc1cccc(CO)c1O)c1ccccc1[S+]2[O-] (stereo not shown) [Example 185]	0.5		10 to 30	< 3		
Cc1ccc2c(c1C)N(CCCN(CC(=O)O)CC(=O)O)c1ccccc1[S+]2[O-] (stereo not shown) [Example 132]	2				100	
Cc1ccc2c(c1C)N(CCNCc1ccccc1O)c1ccccc1[S+]2[O-] (stereo not shown) [Example 144]	8		10 to 30	10 to 30		
Cc1ccc2c(c1C)N(CCCNCc1cccc(O)c1)c1ccccc1[S+]2[O-] (stereo not shown) [Example 24]	3		10 to 30	10 to 30		
Cc1ccc2c(c1C)N(CCCN(C)Cc1ccc(CO)o1)c1ccccc1[S+]2[O-] (stereo not shown) [Example 177]	1		10	< 3		

Compound	IC50 (RBL-2H3 cells) [µM]	Inhibitory Strength (%) ([1]; Conc. of Compd. 10 μM)	IC50 (human basophils; [2]) [µM]	IC50 (human basophils; [3]) [µM]	Inhibitory Strength (%) ([1]; Conc. of Compd. 3 μM)	Inhibitory Strength (%) ([1]; Conc. of Compd. 30 μM)
COc1ccccc1CNCCN1c2ccccc2[S+]([O-])c2ccc(C)c(C)c21 (stereo not shown) [Example 155]	4		30 to 100	10 to 30		
Cc1ccc2c(c1C)N(CCCNC(CO)c1ccccc1)c1ccccc1[S+]2[O-] (stereo not shown) [Example 128]	1			10 to 30		
Cc1ccc2c(c1C)N(CCCNCc1ccccc1)c1cc(Cl)ccc1[S+]2[O-] (stereo not shown) [Example 84]	2		< 3	< 3		
Cc1ccc2c(c1C)N(CCNCc1cccc(C(F)(F)F)c1O)c1ccccc1[S+]2[O-] (stereo not shown) [Example 163]	3		10 to 30	10		
Cc1ccc2c(c1C)N(CCCN(C)Cc1ccccc1)c1cc(-c3nnn(C)n3)ccc1[S+]2[O-] (stereo not shown) [Example 190]	0.5		3	10		
Cc1ccc2c(c1C)N(CCCNCc1ccccc1)c1ccc(Cl)cc1[S+]2[O-] (stereo not shown) [Example 80]	1		10	3 to 10		
Cc1ccc2c(c1C)N(CCNCc1cccc(C(C)C)c1O)c1ccccc1[S+]2[O-] (stereo not shown) [Example 147]	3		10	< 10		
Cc1ccc2c(c1C)N(CCN(C)Cc1cccc(C)c1O)c1ccccc1[S+]2[O-] (stereo not shown) [Example 181]	2		10 to 30	< 10		
COCc1cccc(CNCCCN2c3ccccc3[S+]([O-])c3ccc(C)c(C)c32)c1O (stereo not shown) [Example 35]	1		3	3 to 10		
COc1ccsc1CNCCCN1c2cccc(Cl)c2[S+]([O-])c2ccc(C)c(C)c21 (stereo not shown) [Example 83]	2		10	10 to 30		
COc1cccc(CNCCCN2c3ccccc3[S+]([O-])c3ccc(C)c(C)c32)c1O (stereo not shown) [Example 27]	3		30 to 100	10 to 30		
Cc1ccc2c(c1C)N(CCCN)c1ccccc1[S+]2[O-] (stereo not shown) [Example 8, 1,2-Dimethyl-10-(3-aminopropyl)phenothiazine-5-oxide]	0.1				100	
Cc1ccc2c(c1C)N(CCCN)c1ccccc1S2(=O)=O [Example 196, 1,2-Dimethyl-10-(3-aminopropyl)phenothiazine-5,5-dioxide]	5					30%
COCc1cccc(CNCCN2c3ccccc3[S+]([O-])c3ccc(C)c(C)c32)c1O (stereo not shown) [Example 151]	2		10 to 30	3 to 10		
Cc1ccc2c(c1C)N(CCNCc1ccc(S(N)(=O)=O)cc1)c1ccccc1[S+]2[O-] (stereo not shown) [Example 195]	0.5		30 to 100	10 to 30		
Cc1ccc2c(c1C)N(CCCN1CCC(C(=O)O)CC1)c1ccccc1[S+]2[O-] (stereo not shown) [Example 129]	< 1				100	
Cc1ccc2c(c1C)N(CCCNCc1ccccc1OCCO)c1ccccc1[S+]2[O-] (stereo not shown) [Example 46]	0.5		10 to 30	10 to 30		
COCOc1c(Cl)cccc1CNCCCN1c2ccccc2[S+]([O-])c2ccc(C)c(C)c21 (stereo not shown) [Example 48]	0.3		3 to 10	3		
COc1cc(C)c(O)c(CNCCCN2c3ccccc3[S+]([O-])c3ccc(C)c(C)c32)c1O (stereo not shown) [Example 39]	2		10 to 30	10 to 30		
COc1ccc(CNCCCN2c3ccccc3[S+]([O-])c3ccc(C)c(C)c32)s1 (stereo not shown) [Example 67]	1		10 to 30	10 to 30		
